In publication PMC10336507 (Heliyon, 2023):

Molecular target: M. SssI MTase (Spiroplasma monobiae, UniProt P15840)
Test: coupled fluorescence turn-off DNA methylation assay
Assay type: biochemical

Chain of M. SssI MTase (P15840 whole entry): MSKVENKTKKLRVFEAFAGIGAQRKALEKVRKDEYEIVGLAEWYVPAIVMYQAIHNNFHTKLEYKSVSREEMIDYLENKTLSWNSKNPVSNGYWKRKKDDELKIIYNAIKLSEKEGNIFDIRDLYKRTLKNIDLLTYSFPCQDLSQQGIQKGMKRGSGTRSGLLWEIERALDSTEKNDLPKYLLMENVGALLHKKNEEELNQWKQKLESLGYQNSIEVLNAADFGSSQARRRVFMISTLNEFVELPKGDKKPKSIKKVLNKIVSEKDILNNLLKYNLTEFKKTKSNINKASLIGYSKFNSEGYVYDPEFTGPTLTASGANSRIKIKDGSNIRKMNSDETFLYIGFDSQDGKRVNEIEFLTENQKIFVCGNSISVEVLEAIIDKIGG

IC50: 3.76 µM
SMILES: Nc1ncn([C@@H]2O[C@H](CO)[C@@H](O)[C@H]2O)c(=O)n1 [5-Aza, 5-Azacytidine]
